Values after ≈ are worked out from the molar mass of the structure shown. Values belong to the compound of their own block, whether it stands above or below them.
How the values were obtained:
Assay in all cases: MIC panel of challenge pathogens (CLSI)
Assay type in all cases: cell-based
Bacillus cereus NCTC6349 = details: Bacillus cereus NCTC6349; for MIC: read-out: 100% inhibition; for MIC50: read-out: MIC50 (50%); for MIC80: read-out: MIC80 (80%)
Summary of the method: (§1)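 Broth microdilution per CLSI guidelines. Final inoculum 2-8×10^5 CFU/ml, compounds serially two-fold diluted from 128 mg/L top concentration. Incubated in the dark at 30-37° C for 24-48 h, aerobic or anaerobic as appropriate. MIC read visually as 100% inhibition endpoint; MIC50 and MIC80 also reported.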

[1] = system: Enterococcus faecalis ATCC29212; details: Enterococcus faecalis ATCC29212; for MIC: read-out: 100% inhibition; for MIC50: read-out: MIC50 (50%); for MIC80: read-out: MIC80 (80%)
Summary of the method: as §1

[2] = system: Enterococcus faecalis ATCC51299; details: Enterococcus faecalis ATCC51299; for MIC: read-out: 100% inhibition; for MIC50: read-out: MIC50 (50%); for MIC80: read-out: MIC80 (80%)
Summary of the method: as §1

[3] = system: Enterococcus faecium ATCC700221; details: Enterococcus faecium ATCC700221; for MIC: read-out: 100% inhibition; for MIC50: read-out: MIC50 (50%); for MIC80: read-out: MIC80 (80%)
Summary of the method: as §1

[4] = system: Staphylococcus aureus ATCC43300; details: Staphylococcus aureus ATCC43300; for MIC: read-out: 100% inhibition; for MIC50: read-out: MIC50 (50%); for MIC80: read-out: MIC80 (80%)
Summary of the method: as §1

[5] = system: Staphylococcus aureus AUR131 007035; details: AUR131007035, Staphylococcus aureus AUR131 007035; for MIC: read-out: 100% inhibition; for MIC50: read-out: MIC50 (50%); for MIC80: read-out: MIC80 (80%)
Summary of the method: as §1

[6] = system: Staphylococcus aureus AUR58 7005; details: AUR587005, Staphylococcus aureus AUR58 7005; for MIC: read-out: 100% inhibition; for MIC50: read-out: MIC50 (50%); for MIC80: read-out: MIC80 (80%)
Summary of the method: as §1

[7] = system: Staphylococcus aureus AUR59 7005; details: AUR597005, Staphylococcus aureus AUR59 7005; for MIC: read-out: 100% inhibition; for MIC50: read-out: MIC50 (50%); for MIC80: read-out: MIC80 (80%)
Summary of the method: as §1

[8] = system: Staphylococcus aureus AUR60 7005; details: AUR607005, Staphylococcus aureus AUR60 7005; for MIC: read-out: 100% inhibition; for MIC50: read-out: MIC50 (50%); for MIC80: read-out: MIC80 (80%)
Summary of the method: as §1

[9] = system: Staphylococcus aureus EUP MRSA002; details: EUPMRSA002, Staphylococcus aureus EUP MRSA002; for MIC: read-out: 100% inhibition; for MIC50: read-out: MIC50 (50%); for MIC80: read-out: MIC80 (80%)
Summary of the method: as §1

[10] = system: Staphylococcus aureus EUP MRSA004; details: EUPMRSA004, Staphylococcus aureus EUP MRSA004; for MIC: read-out: 100% inhibition; for MIC50: read-out: MIC50 (50%); for MIC80: read-out: MIC80 (80%)
Summary of the method: as §1

[11] = system: Staphylococcus aureus EUP SAU040; details: EUPSAU040, Staphylococcus aureus EUP SAU040; for MIC: read-out: 100% inhibition; for MIC50: read-out: MIC50 (50%); for MIC80: read-out: MIC80 (80%)
Summary of the method: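 Broth microdilution per CLSI guidelines; final inoculum 2-8×10^5 CFU/ml in the appropriate broth. Compounds serially diluted two-fold from a top assay concentration of 128 mg/L. Plates incubated in the dark at 30-37° C for 24-48 hours, read visually; MIC taken as 100% inhibition endpoint.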

[12] = system: Staphylococcus aureus NRS1 (ATCC700699); details: Staphylococcus aureus NRS1 (ATCC700699); for MIC: read-out: 100% inhibition; for MIC50: read-out: MIC50 (50%); for MIC80: read-out: MIC80 (80%)
Summary of the method: as §1

[13] = system: Staphylococcus aureus NRS2 (ATCC700698); details: Staphylococcus aureus NRS2 (ATCC700698); for MIC: read-out: 100% inhibition; for MIC50: read-out: MIC50 (50%); for MIC80: read-out: MIC80 (80%)
Summary of the method: as §1

[14] = system: Staphylococcus aureus NRS382; details: Staphylococcus aureus NRS382; for MIC: read-out: 100% inhibition; for MIC50: read-out: MIC50 (50%); for MIC80: read-out: MIC80 (80%)
Summary of the method: as §1

[15] = system: Staphylococcus aureus NRS383; details: Staphylococcus aureus NRS383; for MIC: read-out: 100% inhibition; for MIC50: read-out: MIC50 (50%); for MIC80: read-out: MIC80 (80%)
Summary of the method: as §1

[16] = system: Staphylococcus aureus NRS384; details: Staphylococcus aureus NRS384; for MIC: read-out: 100% inhibition; for MIC50: read-out: MIC50 (50%); for MIC80: read-out: MIC80 (80%)
Summary of the method: as §1

[17] = system: Staphylococcus epidermidis NRS122; details: Staphylococcus epidermidis NRS122; for MIC: read-out: 100% inhibition; for MIC50: read-out: MIC50 (50%); for MIC80: read-out: MIC80 (80%)
Summary of the method: as §1

[18] = system: Staphylococcus epidermidis NRS7; details: Staphylococcus epidermidis NRS7; for MIC: read-out: 100% inhibition; for MIC50: read-out: MIC50 (50%); for MIC80: read-out: MIC80 (80%)
Summary of the method: as §1

Structure (SMILES): Cc1cc(Cl)ccc1-c1cc(-c2nnn[nH]2)sc1-c1ccc(C)c2ccccc12 [DNM0576, 5-(4-(4-Chloro-2-methylphenyl)-5-(4-methylnaphthalen-1-yl)thiophen-2-yl)-1H-tetrazole]
MIC (Bacillus cereus NCTC6349): 0.5 µg/mL (≈ 1.2 µM)
MIC50 (Bacillus cereus NCTC6349): ≤ 0.25 µg/mL
MIC80 (Bacillus cereus NCTC6349): ≤ 0.25 µg/mL
MIC [1]: 1 µg/mL (≈ 2.4 µM)
MIC50 [1]: 1 µg/mL (≈ 2.4 µM)
MIC80 [1]: 1 µg/mL (≈ 2.4 µM)
MIC [2]: 1 µg/mL (≈ 2.4 µM)
MIC50 [2]: 1 µg/mL (≈ 2.4 µM)
MIC80 [2]: 1 µg/mL (≈ 2.4 µM)
MIC [3]: 0.5 µg/mL (≈ 1.2 µM)
MIC50 [3]: 0.25 µg/mL (≈ 0.6 µM)
MIC80 [3]: 0.25 µg/mL (≈ 0.6 µM)
MIC [4]: 0.5 µg/mL (≈ 1.2 µM)
MIC50 [4]: 0.5 µg/mL (≈ 1.2 µM)
MIC80 [4]: 0.5 µg/mL (≈ 1.2 µM)
MIC [5]: 0.5 µg/mL (≈ 1.2 µM)
MIC50 [5]: 0.5 µg/mL (≈ 1.2 µM)
MIC80 [5]: 0.5 µg/mL (≈ 1.2 µM)
MIC [6]: 0.5 µg/mL (≈ 1.2 µM)
MIC50 [6]: 0.5 µg/mL (≈ 1.2 µM)
MIC80 [6]: 0.5 µg/mL (≈ 1.2 µM)
MIC [7]: 0.5 µg/mL (≈ 1.2 µM)
MIC50 [7]: 0.5 µg/mL (≈ 1.2 µM)
MIC80 [7]: 0.5 µg/mL (≈ 1.2 µM)
MIC [8]: 0.5 µg/mL (≈ 1.2 µM)
MIC50 [8]: 0.5 µg/mL (≈ 1.2 µM)
MIC80 [8]: 0.5 µg/mL (≈ 1.2 µM)
MIC [9]: ≤ 0.25 µg/mL
MIC50 [9]: ≤ 0.25 µg/mL
MIC80 [9]: ≤ 0.25 µg/mL
MIC [10]: ≤ 0.25 µg/mL
MIC50 [10]: ≤ 0.25 µg/mL
MIC80 [10]: ≤ 0.25 µg/mL
MIC [11]: ≤ 0.25 µg/mL
MIC50 [11]: ≤ 0.25 µg/mL
MIC80 [11]: ≤ 0.25 µg/mL
MIC [12]: 0.5 µg/mL (≈ 1.2 µM)
MIC50 [12]: 0.25 µg/mL (≈ 0.6 µM)
MIC80 [12]: 0.5 µg/mL (≈ 1.2 µM)
MIC [13]: 0.5 µg/mL (≈ 1.2 µM)
MIC50 [13]: 0.5 µg/mL (≈ 1.2 µM)
MIC80 [13]: 0.5 µg/mL (≈ 1.2 µM)
MIC [14]: 0.5 µg/mL (≈ 1.2 µM)
MIC50 [14]: 0.5 µg/mL (≈ 1.2 µM)
MIC80 [14]: 0.5 µg/mL (≈ 1.2 µM)
MIC [15]: 0.5 µg/mL (≈ 1.2 µM)
MIC50 [15]: 0.5 µg/mL (≈ 1.2 µM)
MIC80 [15]: 0.5 µg/mL (≈ 1.2 µM)
MIC [16]: 0.5 µg/mL (≈ 1.2 µM)
MIC50 [16]: 0.5 µg/mL (≈ 1.2 µM)
MIC80 [16]: 0.5 µg/mL (≈ 1.2 µM)
MIC [17]: 2 µg/mL (≈ 4.8 µM)
MIC50 [17]: 2 µg/mL (≈ 4.8 µM)
MIC80 [17]: 2 µg/mL (≈ 4.8 µM)
MIC [18]: 0.5 µg/mL (≈ 1.2 µM)
MIC50 [18]: 0.25 µg/mL (≈ 0.6 µM)
MIC80 [18]: 0.5 µg/mL (≈ 1.2 µM)

MIC (Bacillus cereus NCTC6349): 0.5 µg/mL (≈ 1.22 µM)
MIC50 (Bacillus cereus NCTC6349): 0.5 µg/mL (≈ 1.22 µM)
MIC80 (Bacillus cereus NCTC6349): 0.5 µg/mL (≈ 1.22 µM)
MIC [1]: 1 µg/mL (≈ 2.45 µM)
MIC50 [1]: 1 µg/mL (≈ 2.45 µM)
MIC80 [1]: 1 µg/mL (≈ 2.45 µM)
MIC [2]: 1 µg/mL (≈ 2.45 µM)
MIC50 [2]: 1 µg/mL (≈ 2.45 µM)
MIC80 [2]: 1 µg/mL (≈ 2.45 µM)
MIC [3]: 1 µg/mL (≈ 2.45 µM)
MIC50 [3]: 1 µg/mL (≈ 2.45 µM)
MIC80 [3]: 1 µg/mL (≈ 2.45 µM)
MIC [4]: ≤ 0.25 µg/mL
MIC50 [4]: ≤ 0.25 µg/mL
MIC80 [4]: ≤ 0.25 µg/mL
MIC [5]: 0.5 µg/mL (≈ 1.22 µM)
MIC50 [5]: 0.5 µg/mL (≈ 1.22 µM)
MIC80 [5]: 0.5 µg/mL (≈ 1.22 µM)
MIC [6]: 1 µg/mL (≈ 2.45 µM)
MIC50 [6]: 0.5 µg/mL (≈ 1.22 µM)
MIC80 [6]: 1 µg/mL (≈ 2.45 µM)
MIC [7]: 0.5 µg/mL (≈ 1.22 µM)
MIC50 [7]: 0.5 µg/mL (≈ 1.22 µM)
MIC80 [7]: 0.5 µg/mL (≈ 1.22 µM)
MIC [8]: 0.5 µg/mL (≈ 1.22 µM)
MIC50 [8]: 0.5 µg/mL (≈ 1.22 µM)
MIC80 [8]: 0.5 µg/mL (≈ 1.22 µM)
MIC [9]: 0.5 µg/mL (≈ 1.22 µM)
MIC50 [9]: 0.5 µg/mL (≈ 1.22 µM)
MIC80 [9]: 0.5 µg/mL (≈ 1.22 µM)
MIC [10]: ≤ 0.25 µg/mL
MIC50 [10]: ≤ 0.25 µg/mL
MIC80 [10]: ≤ 0.25 µg/mL
MIC [11]: ≤ 0.25 µg/mL
MIC50 [11]: ≤ 0.25 µg/mL
MIC80 [11]: ≤ 0.25 µg/mL
MIC [12]: 0.5 µg/mL (≈ 1.22 µM)
MIC50 [12]: 0.5 µg/mL (≈ 1.22 µM)
MIC80 [12]: 0.5 µg/mL (≈ 1.22 µM)
MIC [13]: 0.5 µg/mL (≈ 1.22 µM)
MIC50 [13]: 0.5 µg/mL (≈ 1.22 µM)
MIC80 [13]: 0.5 µg/mL (≈ 1.22 µM)
MIC [14]: 0.5 µg/mL (≈ 1.22 µM)
MIC50 [14]: 0.5 µg/mL (≈ 1.22 µM)
MIC80 [14]: 0.5 µg/mL (≈ 1.22 µM)
MIC [15]: ≤ 0.25 µg/mL
MIC50 [15]: ≤ 0.25 µg/mL
MIC80 [15]: ≤ 0.25 µg/mL
MIC [16]: ≤ 0.25 µg/mL
MIC50 [16]: ≤ 0.25 µg/mL
MIC80 [16]: ≤ 0.25 µg/mL
MIC [17]: 4 µg/mL (≈ 9.78 µM)
MIC50 [17]: 2 µg/mL (≈ 4.89 µM)
MIC80 [17]: 4 µg/mL (≈ 9.78 µM)
MIC [18]: 1 µg/mL (≈ 2.45 µM)
MIC50 [18]: 0.5 µg/mL (≈ 1.22 µM)
MIC80 [18]: 0.5 µg/mL (≈ 1.22 µM)
Structure (SMILES): CCCCc1cccc(-c2cc(-c3nnn[nH]3)sc2Cc2ccc(Cl)cc2)c1 [DNM0606, 5-(4-(3-Butylphenyl)-5-(4-chlorobenzyl)thiophen-2-yl)-1H-tetrazole]

Source: patent publication US9012655B2, “Antimicrobial/adjuvant compounds and methods” (Denouamed, Inc., priority 2011, dated 2015)
